Where two headings read alike, the source gives them in different places.
Key:
Experiment in all cases: Test F pre-/postemergence plant response
Assay type in all cases: in vivo
[1] = system: arrowleaf sida (Sida rhombifolia); settings: Sida rhombifolia, scale 0 to 100, read-out: Plant response rating, Arrowleaf Sida
Summary of the method: (§1)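 Seeds were sown in silt loam soil and sprayed preemergence; separately, plants at the 1- to 4-leaf stage (2 to 18 cm) received postemergence sprays. Test chemicals were in a non-phytotoxic solvent mixture with surfactant. After 14 to 21 days in a greenhouse, injury was visually rated 0 (no effect) to 100 (complete control) against untreated controls.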

[2] = system: barnyardgrass (Echinochloa crus-galli); settings: Echinochloa crus-galli, scale 0 to 100, read-out: Plant response rating, Barnyardgrass
Summary of the method: as §1

[3] = system: corn (Zea mays); settings: Zea mays, scale 0 to 100
Summary of the method: as §1

[4] = system: dayflower (Virginia (VA) dayflower, Commelina virginica); settings: Commelina virginica, scale 0 to 100, read-out: Plant response rating, Dayflower, VA
Summary of the method: as §1

[5] = system: fall panicum (Panicum dichotomiflorum); settings: Panicum dichotomiflorum, scale 0 to 100, read-out: Plant response rating, Panicum, Fall
Summary of the method: as §1

[6] = system: giant foxtail (Setaria faberii); settings: Setaria faberi, pre-emergence, scale 0 to 100, read-out: Plant response rating, Foxtail, Giant
Summary of the method: as §1

[7] = system: green foxtail (Setaria viridis); settings: Setaria viridis, pre-emergence, scale 0 to 100, read-out: Plant response rating, Foxtail, Green
Summary of the method: as §1

[8] = system: johnsongrass (Sorghum halepense); settings: Sorghum halepense, pre-emergence, scale 0 to 100, read-out: Plant response rating, Johnsongrass
Summary of the method: as §1

[9] = system: large (Lg) crabgrass (Digitaria sanguinalis); settings: Digitaria sanguinalis, pre-emergence, scale 0 to 100, read-out: Plant response rating, Crabgrass, Large
Summary of the method: as §1

[10] = system: morningglory (Ipomoea coccinea); settings: Ipomoea, pre-emergence, scale 0 to 100, read-out: Plant response rating, Morningglory
Summary of the method: as §1

[11] = system: palmer pigweed (Amaranthus palmeri); settings: Amaranthus palmeri, post-emergence, scale 0 to 100, read-out: Plant response rating, Pigweed, Palmer
Summary of the method: as §1

[12] = system: ragweed (common ragweed, Ambrosia elatior); settings: Ambrosia artemisiifolia, pre-emergence, scale 0 to 100, read-out: Plant response rating, Ragweed
Summary of the method: as §1

[13] = system: sandbur (southern sandbur, Cenchrus echinatus); settings: Cenchrus echinatus, scale 0 to 100, read-out: Plant response rating, Sandbur
Summary of the method: as §1

[14] = system: soybean (Glycine max); settings: Glycine max, scale 0 to 100, read-out: Plant response rating, Soybean
Summary of the method: as §1

[15] = system: surinam grass (Brachiaria decumbens); settings: Urochloa decumbens, pre-emergence, scale 0 to 100, read-out: Plant response rating, Surinam Grass
Summary of the method: as §1

[16] = system: waterhemp (common waterhemp, Amaranthus rudis); settings: Amaranthus tuberculatus, scale 0 to 100, read-out: Plant response rating, Waterhemp
Summary of the method: as §1

[17] = post-emergence, 8 g ai/ha Postemergence
[18] = post-emergence, 16 g ai/ha Postemergence
[19] = post-emergence, 31 g ai/ha Postemergence
[20] = post-emergence, 62 g ai/ha Postemergence
[21] = post-emergence, 125 g ai/ha Postemergence
[22] = pre-emergence, 8 g ai/ha Preemergence
[23] = pre-emergence, 16 g ai/ha Preemergence
[24] = pre-emergence, 31 g ai/ha Preemergence
[25] = pre-emergence, 62 g ai/ha Preemergence
[26] = pre-emergence, 125 g ai/ha Preemergence

## FC(F)c1cc(-c2ccccc2Oc2ncc(Cl)cn2)no1 [Compound 35, 5-chloro-2-[2-[5-(difluoromethyl)-3-isoxazolyl]phenoxy]pyrimidine]
[1]; [17]
  pest or weed control at 8 g/ha: 60%
[1]; [18]
  pest or weed control at 16 g/ha: 80%
[1]; [19]
  pest or weed control at 31 g/ha: 95%
[1]; [20]
  pest or weed control at 62 g/ha: 98%
[1]; [21]
  pest or weed control at 125 g/ha: 98%
[1]; [22]
  pest or weed control at 8 g/ha: 50%
[1]; [23]
  pest or weed control at 16 g/ha: 80%
[1]; [24]
  pest or weed control at 31 g/ha: 100%
[1]; [25]
  pest or weed control at 62 g/ha: 100%
[1]; [26]
  pest or weed control at 125 g/ha: 100%
[2]; [17]
  pest or weed control at 8 g/ha: 0%
[2]; [18]
  pest or weed control at 16 g/ha: 0%
[2]; [19]
  pest or weed control at 31 g/ha: 0%
[2]; [20]
  pest or weed control at 62 g/ha: 10%
[2]; [21]
  pest or weed control at 125 g/ha: 20%
[2]; [22]
  pest or weed control at 8 g/ha: 0%
[2]; [23]
  pest or weed control at 16 g/ha: 0%
[2]; [24]
  pest or weed control at 31 g/ha: 20%
[2]; [25]
  pest or weed control at 62 g/ha: 10%
[2]; [26]
  pest or weed control at 125 g/ha: 65%
[3]; [17]
  Corn plant response rating (crop injury, 0 = no effect, 100 = complete kill) at 8 g/ha: 10%
[3]; [18]
  Corn plant response rating (crop injury, 0 = no effect, 100 = complete kill) at 16 g/ha: 10%
[3]; [19]
  Corn plant response rating (crop injury, 0 = no effect, 100 = complete kill) at 31 g/ha: 15%
[3]; [20]
  Corn plant response rating (crop injury, 0 = no effect, 100 = complete kill) at 62 g/ha: 15%
[3]; [21]
  Corn plant response rating (crop injury, 0 = no effect, 100 = complete kill) at 125 g/ha: 20%
[3]; [22]
  Corn plant response rating (crop injury, 0 = no effect, 100 = complete kill) at 8 g/ha: 0%
[3]; [23]
  Corn plant response rating (crop injury, 0 = no effect, 100 = complete kill) at 16 g/ha: 0%
[3]; [24]
  Corn plant response rating (crop injury, 0 = no effect, 100 = complete kill) at 31 g/ha: 30%
[3]; [25]
  Corn plant response rating (crop injury, 0 = no effect, 100 = complete kill) at 62 g/ha: 0%
[3]; [26]
  Corn plant response rating (crop injury, 0 = no effect, 100 = complete kill) at 125 g/ha: 20%
[4]; [17]
  pest or weed control at 8 g/ha: 10%
[4]; [18]
  pest or weed control at 16 g/ha: 40%
[4]; [19]
  pest or weed control at 31 g/ha: 40%
[4]; [20]
  pest or weed control at 62 g/ha: 50%
[4]; [21]
  pest or weed control at 125 g/ha: 80%
[4]; [22]
  pest or weed control at 8 g/ha: 0%
[4]; [23]
  pest or weed control at 16 g/ha: 25%
[4]; [24]
  pest or weed control at 31 g/ha: 65%
[4]; [25]
  pest or weed control at 62 g/ha: 90%
[4]; [26]
  pest or weed control at 125 g/ha: 95%
[5]; [17]
  pest or weed control at 8 g/ha: 30%
[5]; [18]
  pest or weed control at 16 g/ha: 40%
[5]; [19]
  pest or weed control at 31 g/ha: 40%
[5]; [20]
  pest or weed control at 62 g/ha: 50%
[5]; [21]
  pest or weed control at 125 g/ha: 50%
[5]; [22]
  pest or weed control at 8 g/ha: 0%
[5]; [23]
  pest or weed control at 16 g/ha: 35%
[5]; [24]
  pest or weed control at 31 g/ha: 100%
[5]; [26]
  pest or weed control at 125 g/ha: 100%
[5]; pre-emergence, Preemergence
  pest or weed control at 62 g/ha: 100%
[6]; 8 g ai/ha Preemergence
  pest or weed control at 8 g/ha: 0%
[6]; 16 g ai/ha Preemergence
  pest or weed control at 16 g/ha: 10%
[6]; 31 g ai/ha Preemergence
  pest or weed control at 31 g/ha: 70%
[6]; 62 g ai/ha Preemergence
  pest or weed control at 62 g/ha: 70%
[6]; 125 g ai/ha Preemergence
  pest or weed control at 125 g/ha: 100%
[7]; 8 g ai/ha Preemergence
  pest or weed control at 8 g/ha: 0%
[7]; 16 g ai/ha, Preemergence
  pest or weed control at 16 g/ha: 0%
[7]; 31 g ai/ha, Preemergence
  pest or weed control at 31 g/ha: 30%
[7]; 125 g ai/ha, Preemergence
  pest or weed control at 125 g/ha: 98%
[7]; Preemergence
  pest or weed control at 62 g/ha: 75%
[8]; 8 g ai/ha Preemergence
  pest or weed control at 8 g/ha: 0%
[8]; 16 g ai/ha Preemergence
  pest or weed control at 16 g/ha: 0%
[8]; 31 g ai/ha Preemergence
  pest or weed control at 31 g/ha: 0%
[8]; 125 g ai/ha Preemergence
  pest or weed control at 125 g/ha: 65%
[8]; Preemergence
  pest or weed control at 62 g/ha: 35%
[9]; 8 g ai/ha Preemergence
  pest or weed control at 8 g/ha: 0%
[9]; 16 g ai/ha Preemergence
  pest or weed control at 16 g/ha: 60%
[9]; 31 g ai/ha Preemergence
  pest or weed control at 31 g/ha: 75%
[9]; 62 g ai/ha Preemergence
  pest or weed control at 62 g/ha: 75%
[9]; 125 g ai/ha Preemergence
  pest or weed control at 125 g/ha: 100%
[10]; 8 g ai/ha Preemergence
  pest or weed control at 8 g/ha: 0%
[10]; 16 g ai/ha Preemergence
  pest or weed control at 16 g/ha: 0%
[10]; 31 g ai/ha Preemergence
  pest or weed control at 31 g/ha: 0%
[10]; 125 g ai/ha Preemergence
  pest or weed control at 125 g/ha: 65%
[10]; Preemergence
  pest or weed control at 62 g/ha: 30%
[11]; 8 g ai/ha Postemergence
  pest or weed control at 8 g/ha: 60%
[11]; 16 g ai/ha Postemergence
  pest or weed control at 16 g/ha: 75%
[11]; 31 g ai/ha Postemergence
  pest or weed control at 31 g/ha: 95%
[11]; 62 g ai/ha Postemergence
  pest or weed control at 62 g/ha: 100%
[11]; 125 g ai/ha Postemergence
  pest or weed control at 125 g/ha: 100%
[12]; 8 g ai/ha Preemergence
  pest or weed control at 8 g/ha: 0%
[12]; 16 g ai/ha Preemergence
  pest or weed control at 16 g/ha: 0%
[12]; 31 g ai/ha Preemergence
  pest or weed control at 31 g/ha: 0%
[12]; 125 g ai/ha Preemergence
  pest or weed control at 125 g/ha: 70%
[12]; Preemergence
  pest or weed control at 62 g/ha: 40%
[13]; [17]
  pest or weed control at 8 g/ha: 0%
[13]; [18]
  pest or weed control at 16 g/ha: 0%
[13]; [19]
  pest or weed control at 31 g/ha: 0%
[13]; [20]
  pest or weed control at 62 g/ha: 0%
[13]; [21]
  pest or weed control at 125 g/ha: 0%
[13]; [22]
  pest or weed control at 8 g/ha: 0%
[13]; [23]
  pest or weed control at 16 g/ha: 10%
[13]; [24]
  pest or weed control at 31 g/ha: 10%
[13]; [26]
  pest or weed control at 125 g/ha: 65%
[13]; pre-emergence, Preemergence
  pest or weed control at 62 g/ha: 40%
[14]; [17]
  plant injury at 8 g/ha: 70%
[14]; [18]
  plant injury at 16 g/ha: 80%
[14]; [19]
  plant injury at 31 g/ha: 85%
[14]; [20]
  plant injury at 62 g/ha: 95%
[14]; [21]
  plant injury at 125 g/ha: 98%
[14]; [22]
  plant injury at 8 g/ha: 0%
[14]; [23]
  plant injury at 16 g/ha: 35%
[14]; [24]
  plant injury at 31 g/ha: 40%
[14]; [26]
  plant injury at 125 g/ha: 90%
[14]; pre-emergence, Preemergence
  plant injury at 62 g/ha: 70%
[15]; 8 g ai/ha Preemergence
  pest or weed control at 8 g/ha: 0%
[15]; 16 g ai/ha Preemergence
  pest or weed control at 16 g/ha: 0%
[15]; 31 g ai/ha Preemergence
  pest or weed control at 31 g/ha: 0%
[15]; 125 g ai/ha Preemergence
  pest or weed control at 125 g/ha: 35%
[15]; Preemergence
  pest or weed control at 62 g/ha: 20%
[16]; [17]
  pest or weed control at 8 g/ha: 70%
[16]; [18]
  pest or weed control at 16 g/ha: 85%
[16]; [19]
  pest or weed control at 31 g/ha: 90%
[16]; [20]
  pest or weed control at 62 g/ha: 100%
[16]; [21]
  pest or weed control at 125 g/ha: 100%
[16]; [22]
  pest or weed control at 8 g/ha: 100%
[16]; [23]
  pest or weed control at 16 g/ha: 100%
[16]; [24]
  pest or weed control at 31 g/ha: 100%
[16]; [26]
  pest or weed control at 125 g/ha: 100%
[16]; pre-emergence, Preemergence
  pest or weed control at 62 g/ha: 100%

— patent US10131652B2, “Pyrimidinyloxy benzene derivatives as herbicides” (E. I. DU PONT DE NEMOURS AND COMPANY, priority 2014, dated 2018)
